# Data from PMC11434080, “Acetylation of Oleanolic Acid Dimers as a Method of Synthesis of Powerful Cytotoxic Agents” (Molecules, 2024).
# “Also recorded” adds a separate entry of the source. Like-named read-outs stand apart in the source and are kept apart here.
# Key:
# [1] = tested on: SKBR-3, SKOV-3, PC-3, and U-87 cancer cell lines; assay: MTT assay, four cancer cell lines taken together; format: cell-based, human; settings: for Selectivity Index value: IC50 HDF / IC50 cancer cell line, across the four cancer lines; for IC50: MTT, across SKBR-3, SKOV-3, PC-3, U-87; for level of cytotoxic activity relative to oleanolic acid (1): four cancer cell lines, times more active than oleanolic acid (1)
# Protocol: (§1) The cytotoxic activity of oleanolic acid (mother compound, 1, Figure 2) and its 14 derivatives (3a–3n, Figure 2) was tested in vitro using the standard MTT method based on viability assay, e.g., [44] against carcinoma cell lines: SKBR-3, SKOV-3, PC-3, U-87, and one normal cell line: HDF.
# (§2) Human cancer cells: SKBR-3 and SKOV-3 were cultured in McCoy’s Modified Medium; PC-3 was cultured in an F-12K medium; U-87 was cultured in EMEM medium; HDF was cultured in Fibroblast Basal Medium. Each medium was supplemented with 10% fetal bovine serum, 1% L- glutamine, and 1% penicillin/streptomycin solution. The cell lines were kept in an incubator at 37 °C. All the cell lines and mediums were obtained from the American Type Culture Collection (ATCC) supplied by LGC-Standards (Lomianki, Poland).
# (§3) The MTT assay was conducted as described earlier, e.g., [44]. In short, this method is based on the reaction between mitochondria enzymes (dehydrogenases) of tested cell lines and 3-(4,5-dimethylthiazol-2-yl)-2,5-diphenyltetrazolium bromide (MTT). The final product of this reaction gives violet formazan crystals. The number of live cells is proportional to the amount of formazan and is represented by the violet dye reagent. The details of the experiments are given in [44].
# SKBR-3 = assay: MTT assay, SKBR-3; format: cell-based, human; settings: for IC50: SKBR-3 human breast adenocarcinoma, value (SD); for SKBR-3 SI: Selectivity Index = IC50 HDF / IC50 SKBR-3
# Protocol: as §1, §2, §3
# SKOV-3 = assay: MTT assay, SKOV-3; format: cell-based, human; settings: for IC50: SKOV-3 human ovarian cystadenocarcinoma, value (SD); for SKOV-3 SI: Selectivity Index = IC50 HDF / IC50 SKOV-3
# Protocol: as §1, §2, §3
# PC-3 = assay: MTT assay, PC-3; format: cell-based, human; settings: for IC50: value (SD); for B SI: Selectivity Index = IC50 HDF / IC50 of PC-3
# Protocol: as §1, §2, §3
# U-87 = assay: MTT assay, U-87; format: cell-based, human; settings: for U-87 SI: Selectivity Index = IC50 HDF / IC50 U-87; for IC50: U-87 MG, MTT assay, U-87 human glioblastoma, value (SD)
# Protocol: as §1, §2, §3
# HDF = assay: MTT assay, HDF normal cell line; format: cell-based; settings: Homo sapiens, value (SD)
# Protocol: as §1, §2, §3
# DPPH antioxidant assay = settings: for DPPH activity (in words): Figure 3
# Description: (§4) The results of the antioxidant activity of oleanolic acid (1) and Acetylated Oleanolic Acid Dimers (AcOADs) 3a–3n evaluated with CUPRAC and DPPH assays are given in Figure 3. The results are presented as % inhibition of the copper(II) ions and Trolox equivalent (blue bars) calculated from the standard curve, presented in the Supplementary Materials (Supplementary Materials S02, Figure S1) and as % inhibition of the DPPH radical and Trolox equivalent (pink bars), calculated from the standard curve presented in the Supplementary Materials (Supplementary Materials S02, Figure S2).
# (§5) The CUPRAC reagent (7.5 mM ethanolic 96% neocuproine solution, 10 mM CuCl2 × H2O solution, and an ammonium acetate buffer of pH 7.0) and DPPH reagent (2,2-diphenyl-1-picrylhydrazyl 0.2 mM solution) were applied.
# (§6) The DPPH assay relies on the ability of an antioxidant to donate a hydrogen atom or an electron to the stable DPPH radical, resulting in its reduction and subsequent color change. In contrast, the CUPRAC method measures the reducing power of a sample by quantifying its ability to convert the Cu-neocuproine reagent complex into the Cu(I) form. The results are presented as % inhibition of the copper(II) ions and Trolox equivalent (blue bars) calculated from the standard curve (Supplementary Materails S02, Figure S1) and as % inhibition of the DPPH radical and Trolox equivalent (pink bars), calculated from the standard curve (Supplementary Materials S02, Figure S2). The details of the experiments are given in [46].
# CUPRAC antioxidant assay = assay: CUPRAC antioxidant assay
# Description: as §4, §5, §6
# [2] = MTT assay, PC-3 human prostate carcinoma, read-out: B IC50 (SD)
Compound,Selectivity Index value [1],"IC50 (SKBR-3; SK-BR-3, MTT assay)",SKBR-3 SI (SKBR-3),"IC50 (SKOV-3; SK-OV-3, MTT assay)",SKOV-3 SI (SKOV-3),IC50 (PC-3; [2]),B SI (PC-3),U-87 SI (U-87),IC50 (U-87),IC50 (HDF),IC50 ([1]; Homo sapiens),further results
"CC1(C)CCC2(C(=O)OCCCCCCCCCCCCOC(=O)C34CCC(C)(C)CC3C3=CCC5C6(C)CCC(O)C(C)(C)C6CCC5(C)C3(C)CC4)CCC3(C)C(=CCC4C5(C)CCC(O)C(C)(C)C5CCC43C)C2C1 (stereo not shown) [Compound 2n, reference compound]",higher than 1.00,,,,,,,,,,,
CC(=O)OC1CCC2(C)C(CCC3(C)C2CC=C2C4CC(C)(C)CCC4(C(=O)OCCCCOC(=O)C45CCC(C)(C)CC4C4=CCC6C7(C)CCC(OC(C)=O)C(C)(C)C7CCC6(C)C4(C)CC5)CCC23C)C1(C)C (stereo not shown) [Compound 3d],higher than 1.00,3.03 µM,1.58,2.89 µM,1.65,3.59 µM,1.33,1.35,3.54 µM,4.78 µM,2.5 to 4.5 µM,
CC(=O)OC1CCC2(C)C(CCC3(C)C2CC=C2C4CC(C)(C)CCC4(C(=O)OCCCCCCCCCOC(=O)C45CCC(C)(C)CC4C4=CCC6C7(C)CCC(OC(C)=O)C(C)(C)C7CCC6(C)C4(C)CC5)CCC23C)C1(C)C (stereo not shown) [Compound 3k],,2.61 µM,0.74,2.66 µM,0.73,2.45 µM,0.79,0.92,2.1 µM,1.94 µM,~2 µM,DPPH activity (in words) (DPPH antioxidant assay): higher antioxidant activity than OA
"CC1(C)CC[C@]2(C(=O)O)CC[C@]3(C)C(=CC[C@@H]4[C@@]5(C)CC[C@H](O)C(C)(C)[C@@H]5CC[C@]43C)[C@@H]2C1 [Compound 1, oleanolic acid]",,,1.27,,1.32,18.6 µM,1.33,1.37,18.2 µM,24.9 µM,,CUPRAC antioxidant activity (CUPRAC antioxidant assay): 0.05474 ± 0.00171 Trolox equivalents; DPPH antioxidant activity (DPPH antioxidant assay): 0.01907 ± 0.0006506 Trolox equivalents
CC(=O)OC1CCC2(C)C(CCC3(C)C2CC=C2C4CC(C)(C)CCC4(C(=O)OCCCCCCOC(=O)C45CCC(C)(C)CC4C4=CCC6C7(C)CCC(OC(C)=O)C(C)(C)C7CCC6(C)C4(C)CC5)CCC23C)C1(C)C (stereo not shown) [Compound 3h],higher than 1.00,5.25 µM,1.30,4.72 µM,1.45,5.13 µM,1.33,1.47,4.65 µM,6.85 µM,4.65 to 7.06 µM,level of cytotoxic activity relative to oleanolic acid (1) [1]: approximately 3 times
CC(=O)OC1CCC2(C)C(CCC3(C)C2CC=C2C4CC(C)(C)CCC4(C(=O)OCCCCCCCOC(=O)C45CCC(C)(C)CC4C4=CCC6C7(C)CCC(OC(C)=O)C(C)(C)C7CCC6(C)C4(C)CC5)CCC23C)C1(C)C (stereo not shown) [Compound 3i],lower than 1,2 µM,0.92,1.93 µM,0.96,1.9 µM,0.97,0.93,1.98 µM,1.85 µM,~2 µM,IC50 [1]: ≤ 2 µM
CC(=O)OC1CCC2(C)C(CCC3(C)C2CC=C2C4CC(C)(C)CCC4(C(=O)OCCCCCCCCOC(=O)C45CCC(C)(C)CC4C4=CCC6C7(C)CCC(OC(C)=O)C(C)(C)C7CCC6(C)C4(C)CC5)CCC23C)C1(C)C (stereo not shown) [Compound 3j],,2.77 µM,2.31,2.81 µM,2.28,2.72 µM,2.32,2.32,2.76 µM,6.4 µM,2.5 to 4.5 µM,DPPH activity (in words) (DPPH antioxidant assay): higher antioxidant activity than OA
CC(=O)OC1CCC2(C)C(CCC3(C)C2CC=C2C4CC(C)(C)CCC4(C(=O)OCC=CCOC(=O)C45CCC(C)(C)CC4C4=CCC6C7(C)CCC(OC(C)=O)C(C)(C)C7CCC6(C)C4(C)CC5)CCC23C)C1(C)C (stereo not shown) [Compound 3f],about 0.5,,0.57,,0.58,,0.60,0.59,,,4.65 to 7.06 µM,"IC50 (SKBR-3; Homo sapiens, SK-BR-3, MTT assay): 7.06 µM; IC50 (SKOV-3; Homo sapiens, SK-OV-3, MTT assay): 6.92 µM; IC50 (PC-3; Homo sapiens, PC-3, read-out: B IC50 (SD), MTT assay, PC-3 human prostate carcinoma): 6.7 µM; IC50 (U-87; Homo sapiens): 6.8 µM; IC50 (HDF; HDF): 4.02 µM; level of cytotoxic activity relative to oleanolic acid (1) [1]: approximately 3 times"
CC(=O)OC1CCC2(C)C(CCC3(C)C2CC=C2C4CC(C)(C)CCC4(C(=O)OCCCCCCCCCCOC(=O)C45CCC(C)(C)CC4C4=CCC6C7(C)CCC(OC(C)=O)C(C)(C)C7CCC6(C)C4(C)CC5)CCC23C)C1(C)C (stereo not shown) [Compound 3l],,5.91 µM,0.61,5.95 µM,0.61,5.95 µM,0.61,0.66,5.47 µM,3.62 µM,4.65 to 7.06 µM,level of cytotoxic activity relative to oleanolic acid (1) [1]: approximately 3 times; DPPH activity (in words) (DPPH antioxidant assay): higher antioxidant activity than OA; also recorded: highest activity; also recorded: extremely high DPPH activity
CC(=O)OC1CCC2(C)C(CCC3(C)C2CC=C2C4CC(C)(C)CCC4(C(=O)OCC=CCOC(=O)C45CCC(C)(C)CC4C4=CCC6C7(C)CCC(OC(C)=O)C(C)(C)C7CCC6(C)C4(C)CC5)CCC23C)C1(C)C (stereo not shown) [Compound 3e],,3.07 µM,2.17,2.95 µM,2.26,3.35 µM,1.99,1.91,3.48 µM,6.66 µM,2.5 to 4.5 µM,CUPRAC activity (in words) (CUPRAC antioxidant assay; Figure 3): highest CUPRAC activity
CC(=O)OC1CCC2(C)C(CCC3(C)C2CC=C2C4CC(C)(C)CCC4(C(=O)OCCCCCOC(=O)C45CCC(C)(C)CC4C4=CCC6C7(C)CCC(OC(C)=O)C(C)(C)C7CCC6(C)C4(C)CC5)CCC23C)C1(C)C (stereo not shown) [Compound 3g],higher than 1.00,4.65 µM,1.22,4.23 µM,1.34,4.1 µM,1.38,1.38,4.09 µM,5.66 µM,2.5 to 4.5 µM,
CC(=O)OC1CCC2(C)C(CCC3(C)C2CC=C2C4CC(C)(C)CCC4(C(=O)OCCCOC(=O)C45CCC(C)(C)CC4C4=CCC6C7(C)CCC(OC(C)=O)C(C)(C)C7CCC6(C)C4(C)CC5)CCC23C)C1(C)C (stereo not shown) [Compound 3c],lower than 1,3.82 µM,0.80,3.15 µM,0.97,2.94 µM,1.04,0.99,3.11 µM,3.07 µM,2.5 to 4.5 µM,
